In the NIST ThermoML archive (doi:10.1007/s10765-006-0051-4):

Assay: xn = mol fraction of the nth substance listed
Details: Gas, Oscillating disk viscometry

FC(F)C(F)(F)F [pentafluoroethane] + CCC
Details | viscosity [mPa·s]
373.15 K, 3429.9 kPa, x1 = 0.5011 | 0.01593
373.15 K, 3613.1 kPa, x1 = 0.5011 | 0.01624
373.15 K, 3684.6 kPa, x1 = 0.7503 | 0.01798
373.15 K, 3737.3 kPa, x1 = 0.5011 | 0.01642
373.15 K, 3960.9 kPa, x1 = 0.5011 | 0.01685
373.15 K, 3969.4 kPa, x1 = 0.7503 | 0.01855
373.15 K, 4171.6 kPa, x1 = 0.5011 | 0.0173
373.15 K, 4227.4 kPa, x1 = 0.7503 | 0.01913
373.15 K, 4377 kPa, x1 = 0.5011 | 0.01777
373.15 K, 4411 kPa, x1 = 0.7503 | 0.01964
373.15 K, 4576.1 kPa, x1 = 0.5011 | 0.01833
373.15 K, 4607.7 kPa, x1 = 0.7503 | 0.02019
373.15 K, 4760.3 kPa, x1 = 0.5011 | 0.01889
373.15 K, 4816.2 kPa, x1 = 0.7503 | 0.02092
373.15 K, 4878.3 kPa, x1 = 0.5011 | 0.01931
373.15 K, 5001.8 kPa, x1 = 0.7503 | 0.0217
373.15 K, 5157.2 kPa, x1 = 0.7503 | 0.02229
373.15 K, 5305.9 kPa, x1 = 0.7503 | 0.02305
398.15 K, 101.4 kPa, x1 = 0.5011 | 0.01447
398.15 K, 101.8 kPa, x1 = 0.7503 | 0.01589
398.15 K, 200.6 kPa, x1 = 0.5011 | 0.01454
398.15 K, 262.5 kPa, x1 = 0.7503 | 0.01594
398.15 K, 348.4 kPa, x1 = 0.5011 | 0.01457
398.15 K, 488.6 kPa, x1 = 0.7503 | 0.01602
398.15 K, 541 kPa, x1 = 0.5011 | 0.01463
398.15 K, 733.4 kPa, x1 = 0.7503 | 0.01606
398.15 K, 783.2 kPa, x1 = 0.5011 | 0.01467
398.15 K, 977 kPa, x1 = 0.7503 | 0.01615
398.15 K, 1028.7 kPa, x1 = 0.5011 | 0.01479
398.15 K, 1218.3 kPa, x1 = 0.7503 | 0.01622
398.15 K, 1272.7 kPa, x1 = 0.5011 | 0.01488
398.15 K, 1476.6 kPa, x1 = 0.7503 | 0.01635
398.15 K, 1520 kPa, x1 = 0.5011 | 0.01497
398.15 K, 1712.5 kPa, x1 = 0.7503 | 0.01647
398.15 K, 1748.1 kPa, x1 = 0.5011 | 0.01511
398.15 K, 1944.3 kPa, x1 = 0.7503 | 0.01666
398.15 K, 2037 kPa, x1 = 0.5011 | 0.01521
398.15 K, 2176.8 kPa, x1 = 0.7503 | 0.01672
398.15 K, 2274.1 kPa, x1 = 0.5011 | 0.0154
398.15 K, 2388.9 kPa, x1 = 0.7503 | 0.01694
398.15 K, 2490.3 kPa, x1 = 0.5011 | 0.01548
398.15 K, 2622.4 kPa, x1 = 0.7503 | 0.01715
398.15 K, 2777.4 kPa, x1 = 0.5011 | 0.01568
398.15 K, 2888.9 kPa, x1 = 0.7503 | 0.01734
398.15 K, 3059.7 kPa, x1 = 0.5011 | 0.01592
398.15 K, 3178.3 kPa, x1 = 0.7503 | 0.01765
398.15 K, 3336.8 kPa, x1 = 0.5011 | 0.01626
398.15 K, 3405.7 kPa, x1 = 0.7503 | 0.01794
398.15 K, 3609.9 kPa, x1 = 0.5011 | 0.0165
398.15 K, 3624.9 kPa, x1 = 0.7503 | 0.01817
398.15 K, 3822.7 kPa, x1 = 0.7503 | 0.01844
398.15 K, 3842.8 kPa, x1 = 0.5011 | 0.01681
398.15 K, 3992.9 kPa, x1 = 0.7503 | 0.01868
398.15 K, 4062.4 kPa, x1 = 0.5011 | 0.01705
398.15 K, 4225.4 kPa, x1 = 0.7503 | 0.01902
398.15 K, 4329.6 kPa, x1 = 0.5011 | 0.01744
398.15 K, 4523.9 kPa, x1 = 0.7503 | 0.01947
398.15 K, 4652.3 kPa, x1 = 0.5011 | 0.01792
398.15 K, 4690.7 kPa, x1 = 0.7503 | 0.01983
398.15 K, 4804.6 kPa, x1 = 0.7503 | 0.02002
398.15 K, 5014.1 kPa, x1 = 0.5011 | 0.01853
